Measured values from patent EP4722205A1, “HETEROCYCLIC COMPOUND AND NOXIOUS ARTHROPOD-CONTROLLING COMPOSITION CONTAINING SAME” (Sumitomo Chemical Company, Limited, priority 2023, dated 2024).

What was measured:
Type in all cases: in vivo
[1] = system: cotton worm (Spodoptera litura); assay: Test Method 9: sprayed cabbage seedling, third instar cotton worm (Formulation example 5); conditions: 144 h, third instar larvae, after 6 days, 25°C, read-out: controlling value
Description: (§1) The following tests in the test examples below were conducted at 25°C.
(§2) Cabbage (Brassicae oleracea) seedling (on the developmental stage of the third to fourth true leaf) is planted in a cup, and the diluted solutions are sprayed into the seedling at a ratio of 20 mL/seedling. Thereafter, ten (10) cotton worm (Spodoptera litura) at the third instar larval stage are released onto the seedling. After 6 days, the number of the surviving insects is counted, and the mortality of insects is calculated by the following equation. [formula]

[2] = system: cotton worm (Spodoptera litura); assay: Test Method 3: sprayed cabbage leaves fed to second instar cotton worm; conditions: 120 h, second instar larvae, after 5 days, 25°C, read-out: mortality of insects
Description: as §1
(§3) Cabbage (Brassicae oleracea) seedling (on the developmental stage of the second to third true leaf) is planted in a cup, and the diluted solutions are sprayed into the seedling at a ratio of 20 mL/seedling. Thereafter, the stem and leaf thereof are cut out and then is installed into a cup that is covered with filter paper on the bed of the cup. Five (5) cotton worm (Spodoptera litura) at the second instar larval stage are released into the cup. After 5 days, the number of the surviving insects is counted, and the mortality of insects is calculated by the following equation. [formula]

[3] = system: common house mosquitos (Culex pipiens pallens); assay: Test Method 12: mosquito larvae released into diluted solution; conditions: 24 h, last instar larvae, after 1 day, 25°C, read-out: controlling value
Description: as §1
Into the diluted solution, 30 common house mosquitos (Culex pipiens pallens) at the last instar larval stage are released, and after 1 day, the state of the house mosquito larvae is examined, and the mortality of insects is calculated by the following equation. [formula]

[4] = system: diamondback moth (Plutella xylostella); assay: Test Method 4: sprayed cabbage leaves fed to second instar diamondback moth; conditions: 120 h, second instar larvae, after 5 days, 25°C, read-out: mortality of insects
Description: (§4) Next, an efficacy of the present compound on controlling harmful arthropods is shown by Test examples. The following tests in the test examples below were conducted at 25°C.
Test compounds are made to a formulation according to a similar method to that described in the Formulation example 1, and thereto is added water containing 0.03 v/v% of Shindain (registered trademark) to prepare a diluted solution containing a prescribed concentration of the test compound.
as §3, with “diamondback moth (Plutella xylostella)” for “cotton worm (Spodoptera litura)”

[5] = system: diamondback moth (Plutella xylostella); assay: Test Method 10: sprayed cabbage seedling, third instar diamondback moth (Formulation example 5); conditions: 144 h, third instar larvae, after 6 days, 25°C, read-out: controlling value
Description: as §1
as §2, with “diamondback moth (Plutella xylostella)” for “cotton worm (Spodoptera litura)”

[6] = system: cotton aphids (Aphis gossypii); assay: Test Method 11: foliar spray on cucumber seedling infested with cotton aphids (Formulation example 5); conditions: 120 h, spray 10 mL/seedling, examined after 5 days, 25°C, read-out: controlling value
[7] = system: cotton aphids (Aphis gossypii); assay: Test Method 1: foliar spray on cucumber seedling infested with cotton aphids (Formulation example 1); conditions: 120 h, spray 10 mL/seedling, examined after 5 days, 25°C, read-out: controlling value
[8] = system: housefly (Musca domestica); assay: Test Method 8: coated container contact test, housefly; conditions: 24 h, 40 mg/m^2, female adults, after one (1) day, 25°C, read-out: mortality of insects
Description: as §4
Acetone solution in which test compounds are adjusted to 800 ppm are prepared, and the solution is poured into a container having an internal volume of 20 mL, and the solution is coated uniformly on an inner face of the container such that the test compound is made to be 40 mg/m^2, and the container is then dried.
Five (5) housefly (Musca domestica) female adults are placed in the container, and the cup is covered with the lid. After the prescribed timing is passed, the state of the housefly is examined, and the mortality of insects is calculated by the following equation. [formula]

Row | Compound | mortality at 200 ppm [1] | mortality at 500 ppm [2] | mortality at 3.5 ppm [3] | mortality at 500 ppm [4] | mortality at 50 ppm [5] | mortality at 200 ppm [5] | mortality at 50 ppm [6] | mortality at 200 ppm [6] | mortality at 500 ppm [7] | mortality at 50 ppm [1] | mortality at 40 mg/m2 [8]
1 | CCS(=O)(=O)c1c(C(=O)N(C)c2nc3cccc(F)c3s2)nc2ccc(I)cn12 [compound 22] | ≥ 80% | ≥ 80% | ≥ 90% | ≥ 80% | ≥ 80% | ≥ 80% | ≥ 90% | ≥ 90% | ≥ 90% |  | 
2 | CCS(=O)(=O)c1c(C(=O)N(C)c2nc3ccc(F)cc3s2)nc2ccc(I)cn12 [compound 23] | ≥ 80% | ≥ 80% | ≥ 90% | ≥ 80% | ≥ 80% |  | ≥ 90% | ≥ 90% | ≥ 90% | ≥ 80% | 
3 | CCS(=O)(=O)c1c(C(=O)N(C)c2nc3cc(Cl)ccc3s2)nc2ccc(I)cn12 [compound 29] | ≥ 80% | ≥ 80% | ≥ 90% | ≥ 80% | ≥ 80% | ≥ 80% |  | ≥ 90% | ≥ 90% | ≥ 80% | 
4 | CCS(=O)(=O)c1c(C(=O)N(C)c2nc3ccccc3s2)nc2ccc(I)cn12 [compound 31] | ≥ 80% | ≥ 80% | ≥ 90% | ≥ 80% | ≥ 80% | ≥ 80% | ≥ 90% | ≥ 90% | ≥ 90% | ≥ 80% | 
5 | CCS(=O)(=O)c1c(C(=O)N(C)c2nc3c(F)cc(F)cc3s2)nc2ccc(I)cn12 [compound 35] | ≥ 80% | ≥ 80% | ≥ 90% | ≥ 80% | ≥ 80% | ≥ 80% |  |  | ≥ 90% | ≥ 80% | 
6 | CCS(=O)(=O)c1c(C(=O)N(C)c2nc3ccc(F)cc3o2)nc2ccc(I)cn12 [compound 40] |  |  | ≥ 90% | ≥ 80% |  |  |  | ≥ 90% | ≥ 90% |  | 
7 | CCS(=O)(=O)c1c(C(=O)N(C)c2nc3cc(Cl)ccc3o2)nc2ccc(I)cn12 [compound 41] |  |  | ≥ 90% | ≥ 80% | ≥ 80% | ≥ 80% | ≥ 90% | ≥ 90% | ≥ 90% |  | 
8 | CCS(=O)(=O)c1c(C(=O)N(C)c2nc3cc(F)c(F)cc3o2)nc2ccc(I)cn12 [compound 42] |  | ≥ 80% | ≥ 90% |  |  |  |  |  | ≥ 90% |  | 
9 | CCS(=O)(=O)c1c(C(=O)N(C)c2nc3cc(F)c(F)cc3s2)nc2ccc(Br)cn12 [compound 43] | ≥ 80% | ≥ 80% |  | ≥ 80% |  |  |  | ≥ 90% |  | ≥ 80% | ≥ 80%
10 | CCS(=O)(=O)c1cccnc1C(=O)N(C)c1nc2cc(C(F)(F)F)ccc2n1C [compound 56] |  |  | ≥ 90% | ≥ 80% |  |  |  |  | ≥ 90% |  | 
11 | CCSc1c(C(=O)N(C)c2nc3cc(F)ccc3n2C)nc2ccc(I)cn12 [compound 70] |  |  | ≥ 90% |  |  |  | ≥ 90% | ≥ 90% | ≥ 90% |  | 
12 | CCS(=O)(=O)c1c(C(=O)N(C)c2nc3ncc(F)cc3s2)nc2ccc(I)cn12 [compound 76] | ≥ 80% | ≥ 80% | ≥ 90% | ≥ 80% | ≥ 80% | ≥ 80% |  | ≥ 90% | ≥ 90% | ≥ 80% | 
13 | CCS(=O)(=O)c1cc(-c2ccccn2)cnc1C(=O)N(C)c1nc2cc(F)c(F)cc2s1 [compound 109] | ≥ 80% | ≥ 80% | ≥ 90% | ≥ 80% | ≥ 80% | ≥ 80% | ≥ 90% | ≥ 90% | ≥ 90% | ≥ 80% | 
14 | CCS(=O)(=O)c1cc(-c2ncccn2)cnc1C(=O)N(C)c1nc2cc(F)c(F)cc2s1 [compound 111] | ≥ 80% | ≥ 80% | ≥ 90% | ≥ 80% | ≥ 80% | ≥ 80% | ≥ 90% | ≥ 90% | ≥ 90% | ≥ 80% | 
15 | CCS(=O)(=O)c1cc(C2CC2)cnc1C(=O)N(C)c1nc2cc(F)c(F)cc2s1 [compound 115] | ≥ 80% | ≥ 80% | ≥ 90% | ≥ 80% | ≥ 80% | ≥ 80% | ≥ 90% | ≥ 90% | ≥ 90% | ≥ 80% | 
16 | CCOc1cnc(C(=O)N(C)c2nc3cc(F)c(F)cc3s2)c(S(=O)(=O)CC)c1 [compound 125] | ≥ 80% | ≥ 80% | ≥ 90% | ≥ 80% | ≥ 80% | ≥ 80% | ≥ 90% | ≥ 90% | ≥ 90% | ≥ 80% | 
17 | CCS(=O)(=O)c1ccc(-c2ncccn2)nc1C(=O)N(C)c1nc2cc(F)c(F)cc2s1 [compound 130] | ≥ 80% | ≥ 80% | ≥ 90% | ≥ 80% | ≥ 80% | ≥ 80% | ≥ 90% | ≥ 90% | ≥ 90% | ≥ 80% | 
18 | CCS(=O)(=O)c1ccc(-n2cncn2)nc1C(=O)N(C)c1nc2cc(F)c(F)cc2s1 [compound 131] | ≥ 80% | ≥ 80% | ≥ 90% | ≥ 80% | ≥ 80% | ≥ 80% |  |  |  |  | 
19 | CCS(=O)(=O)c1ccc(NC)nc1C(=O)N(C)c1nc2cc(F)c(F)cc2s1 [compound 134] | ≥ 80% | ≥ 80% | ≥ 90% | ≥ 80% | ≥ 80% | ≥ 80% | ≥ 90% | ≥ 90% | ≥ 90% | ≥ 80% | 
20 | CCS(=O)(=O)c1ccc(N(C)C)nc1C(=O)N(C)c1nc2cc(F)c(F)cc2s1 [compound 135] |  | ≥ 80% | ≥ 90% | ≥ 80% | ≥ 80% | ≥ 80% | ≥ 90% | ≥ 90% |  |  | 
21 | CCS(=O)(=O)c1c(C(=O)N(C)c2nc3cc(F)c(F)cc3s2)nn(C)c1C1CC1 [compound 144] |  | ≥ 80% | ≥ 90% | ≥ 80% | ≥ 80% | ≥ 80% |  | ≥ 90% | ≥ 90% |  | 
